Reference: patent publication US20150344957A1, “MONITORING TREATMENT OF HISTIOCYTOSIS WITH VEMURAFENIB AND DABRAFENIB” (TROVAGENE, INC., priority 2014, published 2015)
“Also recorded” adds a separate entry of the source.

Test system: BRAF V600E mutation in urinary cfDNA
Experiment: Monitoring of BRAF V600E mutation in urinary cfDNA (droplet digital PCR) of treated LCH/ECD patients
Assay type: in vivo, human
Details: for detection of mutant BRAF V600E in urine cfDNA, treatment naive versus treated patient samples: FIG. 3, treated versus treatment-naive samples; for BRAF V600E mutation burden in urinary cfDNA over time on therapy: histiocytosis (LCH/ECD) patients, serial urine samples during treatment, FIG. 4-6
Method: Urinary cell-free (cf)DNA analysis was performed in all patients and plasma cfDNA analysis in 19/26 patients. Serial urinary samples in 10 BRAF V600E mutant samples were also obtained to track disease burden with therapy. Urine and plasma cfDNA were quantified by a droplet digital PCR (ddPCR; QX-100, BioRad).
A two-step assay design was developed for a 28-30 basepair footprint in the target mutant gene sequence. FIG. 1 summarizes the assay design, which includes a first preamplification step to increase the number of copies of a target mutant gene sequence relative to wild-type gene sequences that are present in the sample. The pre-amplification is conducted in the presence of a wild-type (non-mutant) suppressing “WT blocker” oligonucleotide that is complementary to the wild-type sequence (but not the mutant sequence) to decrease amplification of wild-type DNA. The pre-amplification is performed with primers that include adapters (or “tags”) at the 5′ end to facilitate amplification in the second step.
The second step is additional amplification with primers complementary to the tags on the ends of the primers used in the first step and a TaqMan (reporter) probe oligonucleotide complementary to the mutant sequence for quantitative, digital droplet PCR.

| Structure (SMILES) | detection of mutant BRAF V600E in urine cfDNA, treatment naive versus treated patient samples | BRAF V600E mutation burden in urinary cfDNA over time on therapy | BRAF V600E mutation in urinary cfDNA after the end of treatment (one subject, end of treatment, FIG. 6) |
| --- | --- | --- | --- |
| CC(C)(C)c1nc(-c2cccc(NS(=O)(=O)c3c(F)cccc3F)c2F)c(-c2ccnc(N)n2)s1 [dabrafenib, N-{3-[5-(2-aminopyrimidin-4-yl)-2-tert-butyl-1,3-thiazol-4-yl]-2-fluorophenyl}-2,6-difluorobenzenesulfonamide] | decreased detection of mutant BRAF V600E | a decrease in the mutation in cfDNA during the course of treatment | – |
| CCCS(=O)(=O)Nc1ccc(F)c(C(=O)c2c[nH]c3ncc(-c4ccc(Cl)cc4)cc23)c1F [vemurafenib, N-{3-[5-(4-Chlorophenyl)-1H-pyrrolo[2,3-b]pyridin-3-carbonyl]-2,4-difluorophenyl}propane-1-sulfonamide] | decreased detection of mutant BRAF V600E | a decrease in the mutation in urinary cfDNA; also recorded: decreased BRAF mutant allele burden with therapy | an increase, or “rebound,” in the amount of the mutation in urinary cfDNA |
